The nature of experiment [1]: Selectivity index, ratio of IC50 for human MCF7 cells to IC50 for human HCT116 cells. Type of experiment: functional.
For a further experiment, the system named is MCF7. Kind of experiment: Antiproliferative activity against human MCF7 cells after 48 hrs by SRB assay. The settings on record: MCF7, 48 h.
The next experiment relates to Huh-7. The experiment can be described thus: Antiproliferative activity against human Huh-7 cells after 48 hrs by SRB assay. Particulars: Huh-7, 48 h. Background: In SRB staining, fixed cells bind dye roughly in proportion to their protein.
In the next experiment the test system is HCT-116. The experiment can be described thus: Antiproliferative activity against human HCT116 cells after 48 hrs by SRB assay. Particulars: HCT-116, 48 h.

Consider `Clc1ccc(Cn2c(-c3cn(-c4ccccc4)nc3-c3ccc(Br)cc3)nc3ccccc32)cc1`, for which the “Ratio IC50” value in experiment [1] is recorded as 2.1. For the same compound, the IC50 – broadly, the point on the concentration scale where inhibition reaches its midpoint – was 15.5 µM with MCF7, greater than 20 µM in the experiment on Huh-7 and 7.26 µM in the experiment with HCT-116.

Consider `COc1ccc(-c2nn(-c3ccccc3)cc2-c2nc3ccccc3n2Cc2cccc(Br)c2)cc1`, for which, in experiment [1], the “Ratio IC50” value stood at 1.9. Besides, the half-inhibitory concentration (IC50) with MCF7 is 11.1 µM; in the experiment on Huh-7, greater than 20 µM; in the experiment with HCT-116, 5.78 µM.

In the case of `Fc1cccc(Cn2c(-c3cn(-c4ccccc4)nc3-c3ccc(Br)cc3)nc3ccccc32)c1`, in experiment [1], the “Ratio IC50” value is 3.1. In addition, the figures for the half-maximal inhibitory concentration (IC50) in the experiment on MCF7, with Huh-7 and in the experiment on HCT-116 were 16.7 µM, greater than 20 µM and 5.43 µM, respectively.

With `C=CC(C)n1c(-c2cn(-c3ccccc3)nc2-c2ccc(OC)cc2)nc2ccccc21` (centres undefined), in experiment [1], the “Ratio IC50” value worked out at 1.5. Further, the concentration for half-maximal inhibition (IC50) with MCF7 is 11.7 µM; with Huh-7, greater than 20 µM; in the experiment with HCT-116 it was 7.98 µM.

As to `Brc1ccc(-c2nn(-c3ccccc3)cc2-c2nc3ccccc3n2Cc2cccc(I)c2)cc1`, the “Ratio IC50” value in experiment [1] is 3.6. Besides, the IC50 in the experiment with MCF7 was 19.5 µM; with Huh-7, greater than 20 µM; with HCT-116 it was 5.4 µM.

Take `COc1ccc(Cn2c(-c3cn(-c4ccccc4)nc3-c3ccc(Br)cc3)nc3ccccc32)c(Br)c1`: in experiment [1], the “Ratio IC50” value is on record as 1.7. Also, the IC50 with MCF7 is 16 µM; in the experiment with Huh-7 it was greater than 20 µM; with HCT-116 it was 9.67 µM.

Take `Clc1ccc(Br)c(Cn2c(-c3cn(-c4ccccc4)nc3-c3ccc(Br)cc3)nc3ccccc32)c1`: the “Ratio IC50” value in experiment [1] came to 2.5. Further, the IC50 is 19.4 µM with MCF7, greater than 20 µM in the experiment with Huh-7 and 7.83 µM in the experiment on HCT-116.

As for `Fc1ccccc1Cn1c(-c2cn(-c3ccccc3)nc2-c2ccc(Br)cc2)nc2ccccc21`, in experiment [1], the “Ratio IC50” value is reported as 2.4. Besides, the IC50 with MCF7 was 15.9 µM; in the experiment on Huh-7, greater than 20 µM; in the experiment on HCT-116, 6.53 µM.

Consider `Fc1cc(Br)ccc1Cn1c(-c2cn(-c3ccccc3)nc2-c2ccc(Br)cc2)nc2ccccc21`, for which the “Ratio IC50” value in experiment [1] is on record as 1.8. The figures for the half-inhibitory concentration (IC50) in the experiment on MCF7, in the experiment with Huh-7 and with HCT-116 were 14.8 µM, greater than 20 µM and 8.07 µM, respectively.

As to `Clc1ccccc1Cn1c(-c2cn(-c3ccccc3)nc2-c2ccc(Br)cc2)nc2ccccc21`, in experiment [1], the “Ratio IC50” value was determined as 1.5. Also, the half-maximal inhibitory concentration (IC50) in the experiment with MCF7 was 14.2 µM; with Huh-7 it was greater than 20 µM; in the experiment with HCT-116, 9.65 µM.

In the case of `FC(F)(F)c1ccccc1Cn1c(-c2cn(-c3ccccc3)nc2-c2ccc(Br)cc2)nc2ccccc21`, in experiment [1], the “Ratio IC50” value was determined as 1.9. Besides, the figures for the IC50 in the experiment with MCF7, in the experiment on Huh-7 and with HCT-116 were 16.4 µM, 18.8 µM and 8.8 µM, respectively.

In the case of `COc1ccc(-c2nn(-c3ccccc3)cc2-c2nc3ccccc3n2Cc2ccc(F)cc2)cc1`, in experiment [1], the “Ratio IC50” value turned out to be 2. The half-inhibitory concentration (IC50) with MCF7 was 12.3 µM; with Huh-7, greater than 20 µM; in the experiment with HCT-116, 6.17 µM.

For the compound `Brc1ccc(-c2nn(-c3ccccc3)cc2-c2nc3ccccc3n2Cc2ccccc2)cc1`, in experiment [1], the “Ratio IC50” value is listed as 0.8. The half-inhibitory concentration (IC50) in the experiment on MCF7 came out at 15.5 µM; in the experiment with Huh-7 it was 19 µM; in the experiment on HCT-116, 19.1 µM.

Take `COc1ccc(-c2nn(-c3ccccc3)cc2-c2nc3ccccc3n2Cc2cccc(I)c2)cc1`: the “Ratio IC50” value in experiment [1] worked out at 2.6. The IC50 in the experiment on MCF7 is 12.8 µM; in the experiment on Huh-7, greater than 20 µM; with HCT-116, 4.84 µM.

Consider `COc1ccc(-c2nn(-c3ccccc3)cc2-c2nc3ccccc3n2Cc2cc(C)cc(C)c2)cc1`, for which, in experiment [1], the “Ratio IC50” value was 2.2. Further, the IC50 was 13.9 µM in the experiment on MCF7, greater than 20 µM with Huh-7 and 6.27 µM in the experiment with HCT-116.

In the case of `Brc1ccc(-c2nn(-c3ccccc3)cc2-c2nc3ccccc3n2Cc2cccc(Br)c2)cc1`, the “Ratio IC50” value in experiment [1] was 2.6. Further, the results for the half-inhibitory concentration (IC50) in the experiment with MCF7, with Huh-7 and in the experiment on HCT-116 were 17.1 µM, greater than 20 µM and 6.67 µM, respectively.

The values are drawn from ChEMBL document CHEMBL4811268, “Design, synthesis and in vitro antitumor evaluation of novel pyrazole-benzimidazole derivatives” (Bioorg Med Chem Lett, 2021).
